Test results as given in patent publication US10294202B2, “Pyrrolidinones as herbicides” (FMC Corporation, priority 2013, dated 2019).

Columns and labels:
[1] = system: foxtail, green; test: Test D pre-/postemergence herbicide test; assay type: in vivo, Setaria viridis; conditions: for Plant response rating: Foxtail, Green, scale 0 to 100; for Plant response rating, Foxtail, Green: scale 0 to 100 (0 no effect, 100 complete control)
In short: (§1)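 Visual injury score, 0 (no effect) to 100 (complete control), taken 7–21 d post-treatment against untreated controls. Application was preemergence in silt loam and postemergence at 1- to 4-leaf stage, using a surfactant-containing non-phytotoxic solvent formulation.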

[2] = system: field poppy; test: Test D pre-/postemergence herbicide test; assay type: in vivo, Papaver rhoeas; conditions: for Plant response rating: Field Poppy, scale 0 to 100; for Plant response rating, Field Poppy: scale 0 to 100 (0 no effect, 100 complete control)
In short: as §1

[3] = system: wheat, winter; test: Test D pre-/postemergence herbicide test; assay type: in vivo, Triticum aestivum; conditions: for Plant response rating: Postemergence, Wheat, Winter, scale 0 to 100; for Plant response rating, Wheat, Winter: Preemergence, scale 0 to 100 (0 no effect, 100 complete control)
In short: as §1

[4] = system: wheat, spring; test: Test D pre-/postemergence herbicide test; assay type: in vivo, Triticum aestivum; conditions: for Plant response rating: Postemergence, Wheat, Spring, scale 0 to 100; for Plant response rating, Wheat, Spring: Preemergence, scale 0 to 100 (0 no effect, 100 complete control)
In short: as §1

[5] = system: wild poinsettia; test: Test E preemergence herbicide test; assay type: in vivo, Euphorbia heterophylla; parameters: key: 0 = no effect, 100 = complete control
From the text: Seeds of plant species selected from corn (Zea mays), soybean (Glycine max), velvetleaf (Abutilon theophrasti), lambsquarters (Chenopodium album), wild poinsettia (Euphorbia heterophylla), pigweed, palmer (palmer pigweed, Amaranthus palmeri), waterhemp (common waterhemp, Amaranthus rudis), surinam grass (Brachiaria decumbens), crabgrass, large (large crabgrass, Digitaria sanguinalis), crabgrass, Brazil (Brazilian crabgrass, Digitaria horizontalis), panicum, fall (fall panicum, Panicum dichotomiflorum), foxtail, giant (giant foxtail, Setaria faberii), foxtail, green (green foxtail, Setaria viridis), goosegrass (Eleusine indica), johnsongrass (Sorghum halepense), ragweed (common ragweed, Ambrosia elatior), barnyardgrass (Echinochloa crus-galli), sandbur (southern sandbur, Cenchrus echinatus), arrowleaf […] rhombifolia), ryegrass, Italian (Italian ryegrass, Lolium multiflorum), dayflower, VA (Virginia dayflower, Commelina virginica), field bindweed (Convolvulus arvensis), morningglory (Ipomoea coccinea), nightshade (eastern black nightshade, Solanum ptycanthum), kochia (Kochia scoparia), nutsedge, yellow (yellow nutsedge, Cyperus esculentus), cocklebur (common cocklebur, Xanthium strumarium), smartweed (ladysthumb smartweed, Polygonum Persicaria) and beggarticks (hairy beggarticks, Bidens pilosa), were planted into a silt loam soil and treated preemergence with test chemicals formulated in a non-phytotoxic solvent mixture which included a surfactant. Treated plants and controls were maintained in a greenhouse for 21 days, after which time all species were compared to controls and visually evaluated. Plant response ratings, summarized in Table E, are based on a scale of 0 to 100 where 0 is no effect and 100 is complete control. A dash (-) response means no test result.

[6] = system: johnsongrass; test: Test E preemergence herbicide test; assay type: in vivo, Sorghum halepense; parameters: key: 0 = no effect, 100 = complete control
In short: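 Seeds sown in silt loam soil received preemergence treatment with compound in a non-phytotoxic solvent mixture containing surfactant. After 21 days in the greenhouse, plants were visually rated against untreated controls on a 0 (no effect) to 100 (complete control) scale.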

[7] = system: radish, wild; test: Test D pre-/postemergence herbicide test; assay type: in vivo, Raphanus raphanistrum; conditions: for Plant response rating: Postemergence, Radish, Wild, scale 0 to 100; for Plant response rating, Radish, Wild: Preemergence, scale 0 to 100 (0 no effect, 100 complete control)
In short: as §1

Molecule O=C1NCC(c2ccc(C(F)(F)F)cc2)C1C(=O)Nc1cccc(F)c1F (racemic) [Compound 202] has a Plant response rating ([1]; Postemergence, 31 g ai/ha) of 60, a Plant response rating ([1]; Postemergence, 62 g ai/ha) of 65 and a Plant response rating ([1]; Postemergence, 125 g ai/ha) of 70. The Plant response rating ([1]; Postemergence, 250 g ai/ha) was 70, the “Plant response rating, Foxtail, Green” value ([1]; Preemergence, 62 g ai/ha) was 90 and the “Plant response rating, Foxtail, Green” value ([1]; Preemergence, 31 g ai/ha) was 90. It also gave a Plant response rating ([1]; Preemergence, 125 g ai/ha) of 98, a Plant response rating ([1]; Preemergence, 250 g ai/ha) of 95 and a Plant response rating ([2]; Postemergence, 31 g ai/ha) of 0. The Plant response rating ([2]; Postemergence, 62 g ai/ha) was 75, the Plant response rating ([2]; Postemergence, 125 g ai/ha) was 100 and the Plant response rating ([2]; Postemergence, 250 g ai/ha) was 100. For the same molecule, the “Plant response rating, Field Poppy” value ([2]; Preemergence, 62 g ai/ha) was 85, the “Plant response rating, Field Poppy” value ([2]; Preemergence, 31 g ai/ha) was 85 and the Plant response rating ([2]; Preemergence, 125 g ai/ha) was 90. The Plant response rating ([2]; Preemergence, 250 g ai/ha) was 100, the Plant response rating ([3]; 31 g ai/ha) was 0 and the Plant response rating ([3]; 62 g ai/ha) was 0. The Plant response rating ([3]; 125 g ai/ha) was 0, the Plant response rating ([3]; 250 g ai/ha) was 0 and the “Plant response rating, Wheat, Winter” value ([3]; 62 g ai/ha) was 10. The “Plant response rating, Wheat, Winter” value ([3]; 125 g ai/ha) was 25, the “Plant response rating, Wheat, Winter” value ([3]; 31 g ai/ha) was 5 and the “Plant response rating, Wheat, Winter” value ([3]; 250 g ai/ha) was 25. The Plant response rating ([4]; 31 g ai/ha) was 0, the Plant response rating ([4]; 62 g ai/ha) was 0 and the Plant response rating ([4]; 125 g ai/ha) was 0. For the same molecule, the Plant response rating ([4]; 250 g ai/ha) was 5, the “Plant response rating, Wheat, Spring” value ([4]; 62 g ai/ha) was 5 and the “Plant response rating, Wheat, Spring” value ([4]; 125 g ai/ha) was 25. The “Plant response rating, Wheat, Spring” value ([4]; 31 g ai/ha) was 0, the “Plant response rating, Wheat, Spring” value ([4]; 250 g ai/ha) was 35 and the “Plant response rating, Poinsettia, Wild” value ([5]; 31 g ai/ha) was 0. The “Plant response rating, Poinsettia, Wild” value ([5]; 62 g ai/ha) was 0, the “Plant response rating, Poinsettia, Wild” value ([5]; 125 g ai/ha) was 25 and the “Plant response rating, Poinsettia, Wild” value ([5]; 250 g ai/ha) was 65. For the same molecule, the “Plant response rating, Johnsongrass” value ([6]; 31 g ai/ha) was 0, the “Plant response rating, Johnsongrass” value ([6]; 62 g ai/ha) was 0 and the “Plant response rating, Johnsongrass” value ([6]; 125 g ai/ha) was 20. For the same molecule, the “Plant response rating, Johnsongrass” value ([6]; 250 g ai/ha) was 25, the Plant response rating ([7]; 31 g ai/ha) was 50 and the Plant response rating ([7]; 62 g ai/ha) was 70. The Plant response rating ([7]; 125 g ai/ha) was 75, the Plant response rating ([7]; 250 g ai/ha) was 70 and the “Plant response rating, Radish, Wild” value ([7]; 62 g ai/ha) was 0. The “Plant response rating, Radish, Wild” value ([7]; 125 g ai/ha) was 0, the “Plant response rating, Radish, Wild” value ([7]; 31 g ai/ha) was 0 and the “Plant response rating, Radish, Wild” value ([7]; 250 g ai/ha) was 80.

O=C1NCC(c2ccc(F)c(F)c2)C1C(=O)Nc1cccc(F)c1F (centres unmarked) [Compound 17, N-(2,3-difluorophenyl)-4-(3,4-difluorophenyl)-2-oxo-3-pyrrolidinecarboxamide] was tested, and the Plant response rating ([1]; Postemergence, 16 g ai/ha) was 0, the Plant response rating ([1]; Postemergence, 31 g ai/ha) was 0 and the Plant response rating ([1]; Postemergence, 62 g ai/ha) was 0. It also gave a Plant response rating ([1]; Postemergence, 125 g ai/ha) of 0, a Plant response rating ([1]; Postemergence, 250 g ai/ha) of 0 and a Plant response rating ([2]; Postemergence, 16 g ai/ha) of 0. For the same molecule, the Plant response rating ([2]; Postemergence, 31 g ai/ha) was 0, the Plant response rating ([2]; Postemergence, 62 g ai/ha) was 0 and the Plant response rating ([2]; Postemergence, 125 g ai/ha) was 0. It also gave a Plant response rating ([2]; Postemergence, 250 g ai/ha) of 0, a Plant response rating ([3]; 16 g ai/ha) of 0 and a Plant response rating ([3]; 31 g ai/ha) of 0. For the same molecule, the Plant response rating ([3]; 62 g ai/ha) was 0, the Plant response rating ([3]; 125 g ai/ha) was 0 and the Plant response rating ([3]; 250 g ai/ha) was 0. It also gave a Plant response rating ([4]; 16 g ai/ha) of 0, a Plant response rating ([4]; 31 g ai/ha) of 0 and a Plant response rating ([4]; 62 g ai/ha) of 0. The Plant response rating ([4]; 125 g ai/ha) was 0, the Plant response rating ([4]; 250 g ai/ha) was 0 and the “Plant response rating, Poinsettia, Wild” value ([5]; 16 g ai/ha) was 0. For the same molecule, the “Plant response rating, Poinsettia, Wild” value ([5]; 31 g ai/ha) was 0, the “Plant response rating, Poinsettia, Wild” value ([5]; 62 g ai/ha) was 0 and the “Plant response rating, Poinsettia, Wild” value ([5]; 125 g ai/ha) was 0. The “Plant response rating, Poinsettia, Wild” value ([5]; 250 g ai/ha) was 20, the “Plant response rating, Johnsongrass” value ([6]; 16 g ai/ha) was 0 and the “Plant response rating, Johnsongrass” value ([6]; 31 g ai/ha) was 0. The “Plant response rating, Johnsongrass” value ([6]; 62 g ai/ha) was 0, the “Plant response rating, Johnsongrass” value ([6]; 125 g ai/ha) was 0 and the “Plant response rating, Johnsongrass” value ([6]; 250 g ai/ha) was 0. The Plant response rating ([7]; 16 g ai/ha) was 0, the Plant response rating ([7]; 31 g ai/ha) was 0 and the Plant response rating ([7]; 62 g ai/ha) was 0. The Plant response rating ([7]; 125 g ai/ha) was 15 and the Plant response rating ([7]; 250 g ai/ha) was 15.
